Results published in ChEMBL document CHEMBL1201862, “PubChem BioAssay data set” (2004).
The source made the active and inactive calls.

Legend:
[1] = molecular target: COUP transcription factor 2 (Homo sapiens, UniProt P24468); assay: Luminescence-based cell-based high throughput dose response assay to identify inhibitors of COUP-TFII (NR2F2).; assay type: functional;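 further: HEK293 cells transiently cotransfected with COUP-TFII expression vector and reporter; luciferase reporter luminescence driven by COUP-TFII from the pX2-168 reporter plasmid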
[2] = NIH-3T3 fibroblast cytotoxicity, dose response, cytotoxicity control, cell-based, fluorescence, Alamar Blue, secondary assay (AID 2327); assay type: functional;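 further: NIH-3T3 mouse fibroblasts cultured with fluconazole at 8 µg/mL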
[3] = test system: Streptococcus sp. 'group A'; assay: growth inhibition of control SK(-) GAS strain, dose response, counter-screen for streptokinase expression inhibitor project, luminescence, kanamycin, BacTiterGlo, confirmation (AID 1900); assay type: functional, organism-based
Streptokinase A = molecular target: T1, Streptokinase A (Streptococcus pyogenes serotype M1, UniProt P10520); assay: S. pyogenes streptokinase expression inhibitors, potency, dose response, plasminogen activation absorbance, OD405 (AID 1914); assay type: functional, Streptococcus pyogenes M1 GAS;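 further: secreted streptokinase activity via plasminogen activation per viability signal from cell pellet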
T1 sequence (P10520 whole entry): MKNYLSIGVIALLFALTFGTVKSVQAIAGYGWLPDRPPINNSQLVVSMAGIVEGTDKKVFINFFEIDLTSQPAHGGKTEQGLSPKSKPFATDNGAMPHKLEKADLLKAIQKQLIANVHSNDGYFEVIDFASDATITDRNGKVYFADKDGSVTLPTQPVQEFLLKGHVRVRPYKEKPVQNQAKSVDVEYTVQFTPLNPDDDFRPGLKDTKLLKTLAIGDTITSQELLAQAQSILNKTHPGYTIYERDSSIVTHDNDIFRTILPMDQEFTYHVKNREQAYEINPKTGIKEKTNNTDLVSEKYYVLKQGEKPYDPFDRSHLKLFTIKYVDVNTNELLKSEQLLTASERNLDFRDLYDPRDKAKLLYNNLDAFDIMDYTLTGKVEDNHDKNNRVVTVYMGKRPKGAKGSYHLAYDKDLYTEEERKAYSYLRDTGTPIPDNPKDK

[4] = C. albicans growth with fluconazole, confirmation, fluorescence, retest (AID 2467); assay type: functional, cell-based
Streptococcus = assay: Group A Streptococcus viability loss, dose response, counter-screen for streptokinase expression inhibitor project, luminescence, BacTiterGlo (AID 1915); assay type: functional, organism-based;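 further: potency for reduction of bacterial viability or growth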
[5] = molecular target: T2, Probable nicotinate-nucleotide adenylyltransferase (Staphylococcus aureus (strain N315), UniProt P65502); assay type: functional, Staphylococcus aureus subsp. aureus N315;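 on IC50 Mean: confirmatory dose-response retesting of NadD inhibitor hits first found in an ultra-high-throughput screen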
[6] = molecular target: T2, Probable nicotinate-nucleotide adenylyltransferase; assay type: functional, Staphylococcus aureus subsp. aureus N315; conditions: read-out: IC50_Mean
[7] = molecular target: Disintegrin and metalloproteinase domain-containing protein 17 (Homo sapiens, UniProt P78536); assay: ADAM17 protease inhibitors, dose response, counter-screen for ADAM10 exosite inhibitor project, biochemical, quenched FRET substrate (AID 743253)
[8] = molecular target: T3, Oxysterols receptor LXR-beta (Homo sapiens, UniProt P55055); assay type: functional, cell-based;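 further: agonist activity at LXR measured by a cell-based luminescence readout across a dose range, run as a counterscreen for daf-12 agonists; HEK293 cells with Gal4-LXR fusion and GAL4-driven luciferase reporter; potency for activation of Gal4-LXR reporter so compounds are agonists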
T3 sequence (P55055 whole entry): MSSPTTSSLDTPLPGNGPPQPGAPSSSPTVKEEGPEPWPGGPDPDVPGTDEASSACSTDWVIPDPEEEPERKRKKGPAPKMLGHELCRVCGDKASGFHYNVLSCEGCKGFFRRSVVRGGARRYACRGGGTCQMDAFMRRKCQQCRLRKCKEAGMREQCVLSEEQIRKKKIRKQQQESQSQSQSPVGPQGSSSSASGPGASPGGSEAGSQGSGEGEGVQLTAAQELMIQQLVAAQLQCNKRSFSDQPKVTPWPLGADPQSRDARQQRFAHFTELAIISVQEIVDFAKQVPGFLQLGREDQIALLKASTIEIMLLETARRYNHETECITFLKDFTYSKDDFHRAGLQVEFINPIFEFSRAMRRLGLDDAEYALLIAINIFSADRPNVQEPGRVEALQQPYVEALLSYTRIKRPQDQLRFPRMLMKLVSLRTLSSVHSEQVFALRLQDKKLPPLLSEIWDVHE

[9] = inhibitors of firefly luciferase expression or activity, dose response, H4 neuroglioma cells, luminescence (AID 1990); assay type: functional, cell-based
[10] = Luminescence Cell-Based Dose Response HTS to Identify Inhibitors of 5'UTR Stem-Loop Driven Prion Protein mRNA Translation in H4 Neuroglioblastoma Cells. [Related pubchem assays: 1827 (Project Summary), 1813 (Primary HTS)]; assay type: functional
[11] = molecular target: T4, Heat shock factor protein 1 (Mus musculus, UniProt P38532); assay: inhibition of MG132-induced HSE-luciferase signal, confirmation, cell-based, NIH3T3, luminescence, dose retest (AID 2382); assay type: functional;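 further: NIH3T3 fibroblasts with HSF1-driven luciferase reporter stressed by proteasome inhibitor MG132; luminescence from HSF1-driven luciferase expression after 8 hours of MG132 stress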
T4 sequence (P38532 whole entry): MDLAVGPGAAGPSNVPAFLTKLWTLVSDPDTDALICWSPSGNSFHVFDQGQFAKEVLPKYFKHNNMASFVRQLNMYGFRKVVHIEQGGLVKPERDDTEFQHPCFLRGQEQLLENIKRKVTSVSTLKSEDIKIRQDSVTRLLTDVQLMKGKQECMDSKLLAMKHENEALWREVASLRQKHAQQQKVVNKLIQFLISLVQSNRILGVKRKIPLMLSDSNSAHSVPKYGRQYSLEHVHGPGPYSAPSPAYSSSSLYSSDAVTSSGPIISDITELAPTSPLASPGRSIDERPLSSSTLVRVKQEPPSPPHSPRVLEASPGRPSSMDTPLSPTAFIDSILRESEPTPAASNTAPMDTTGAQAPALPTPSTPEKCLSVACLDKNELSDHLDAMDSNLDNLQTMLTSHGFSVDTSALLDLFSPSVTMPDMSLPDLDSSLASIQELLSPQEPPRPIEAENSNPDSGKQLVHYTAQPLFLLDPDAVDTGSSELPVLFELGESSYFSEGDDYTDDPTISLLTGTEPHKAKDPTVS

[12] = inhibitors of SNCA 5'UTR-driven reporter translation, confirmation, H4 neuroglioma cells, luminescence (AID 1988); assay type: functional, cell-based
[13] = A549 cell cytotoxicity, dose response, cytotoxicity control, plate reader, cherry-pick, antagonist series (AID 743412); assay type: functional, cell-based
[14] = HepG2 cell cytotoxicity, dose response, cytotoxicity control, plate reader, cherry-pick, antagonist series (AID 743416); assay type: functional, cell-based
[15] = LGR2 antagonists, dose response, cell-based, HEK293, CRE-luciferase reporter, cherry pick, set 2 (AID 743343); assay type: functional;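 further: transfected cells were stimulated with diluted bursicon conditioned medium after compound addition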
[16] = MC4R antagonists, dose response, counter-screen for LGR2 antagonist project, cell-based, plate reader, cherry pick (AID 743444); assay type: functional;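 further: transfected HEK 293 cells stimulated with alpha-MSH peptide; potency of inhibitors of the alpha-MSH evoked signal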
[17] = HEK293 cell cytotoxicity, dose response, cytotoxicity control, plate reader, cherry-picked samples (AID 743446); assay type: functional, cell-based

T2 sequence (P65502 whole entry): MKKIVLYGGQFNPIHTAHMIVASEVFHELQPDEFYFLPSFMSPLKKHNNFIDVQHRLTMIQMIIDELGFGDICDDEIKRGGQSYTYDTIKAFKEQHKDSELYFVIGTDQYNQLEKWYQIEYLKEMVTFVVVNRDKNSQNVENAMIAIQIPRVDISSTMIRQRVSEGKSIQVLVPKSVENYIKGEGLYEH
Chain of Disintegrin and metalloproteinase domain-containing protein 17 (P78536 whole entry, the tested form may be a part): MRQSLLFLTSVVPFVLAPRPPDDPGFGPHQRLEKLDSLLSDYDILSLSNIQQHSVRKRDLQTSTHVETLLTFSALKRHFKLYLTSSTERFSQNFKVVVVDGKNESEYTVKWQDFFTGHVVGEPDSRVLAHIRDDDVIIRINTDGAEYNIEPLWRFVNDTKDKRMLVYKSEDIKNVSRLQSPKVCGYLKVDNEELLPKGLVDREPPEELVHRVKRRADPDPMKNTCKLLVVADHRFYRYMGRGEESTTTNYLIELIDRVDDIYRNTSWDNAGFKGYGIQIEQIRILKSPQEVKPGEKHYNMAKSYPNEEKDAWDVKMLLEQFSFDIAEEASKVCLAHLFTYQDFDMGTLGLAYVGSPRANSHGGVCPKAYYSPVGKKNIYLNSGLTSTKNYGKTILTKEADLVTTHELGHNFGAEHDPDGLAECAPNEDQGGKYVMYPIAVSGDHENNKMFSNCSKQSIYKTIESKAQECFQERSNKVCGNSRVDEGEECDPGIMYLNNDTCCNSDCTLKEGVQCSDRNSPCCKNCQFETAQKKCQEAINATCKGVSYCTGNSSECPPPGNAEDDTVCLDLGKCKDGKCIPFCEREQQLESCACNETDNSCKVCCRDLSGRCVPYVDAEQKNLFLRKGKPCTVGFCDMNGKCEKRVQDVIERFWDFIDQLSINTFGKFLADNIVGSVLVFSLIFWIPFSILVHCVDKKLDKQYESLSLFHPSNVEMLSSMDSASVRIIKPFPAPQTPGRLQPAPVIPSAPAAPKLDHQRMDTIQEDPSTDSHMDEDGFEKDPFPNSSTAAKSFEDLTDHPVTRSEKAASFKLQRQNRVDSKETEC
Chain of COUP transcription factor 2 (P24468 whole entry): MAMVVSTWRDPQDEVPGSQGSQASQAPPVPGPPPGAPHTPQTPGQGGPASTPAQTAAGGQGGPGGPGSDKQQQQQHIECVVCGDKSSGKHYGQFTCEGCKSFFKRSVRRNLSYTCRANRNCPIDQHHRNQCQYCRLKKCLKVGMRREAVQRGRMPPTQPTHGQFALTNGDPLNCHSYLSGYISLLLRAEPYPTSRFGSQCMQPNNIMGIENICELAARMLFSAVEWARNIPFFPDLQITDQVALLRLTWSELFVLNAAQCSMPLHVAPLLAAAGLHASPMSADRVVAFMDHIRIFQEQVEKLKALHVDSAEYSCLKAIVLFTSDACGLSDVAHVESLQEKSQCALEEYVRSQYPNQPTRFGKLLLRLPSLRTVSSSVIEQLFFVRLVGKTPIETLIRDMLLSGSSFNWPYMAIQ

NC(=O)[C@H]1CC2(CC(c3cccc(NC(=O)COc4ccc(Cl)cc4)c3)=NO2)CN1C(=O)Cc1ccc([N+](=O)[O-])cc1 (stereo not given in full)
IC50 [1]: 5.32 µM (active)

O=C(NNC(=O)c1cc(-c2ccc(Cl)cc2)nc2ccccc12)c1csc(N2CCOCC2)n1
EC50 [2]: > 150 µM (inactive)
EC50 [3]: 20 µM (active)
EC50 (Streptokinase A): > 150 µM (not active)
EC50 [4]: 0.775 µM (active)
EC50 (Streptococcus): 76.8 µM (active)
IC50 [5]: 20.8 µM (active)
IC50 [6]: 58 µM (active)
IC50 [7]: > 69.5 µM (inactive)

Cc1cccc(/C=C\c2nc(O)c3ccccc3n2)c1
EC50 [8]: > 67.5 µM (inactive)

c1c2c(cc3sc(N4CCCCC4)nc13)OCCO2
EC50 [9]: > 120 µM (not active)
EC50 [10]: 8.9 µM (active)
EC50 [11]: 11.5 µM (active)
EC50 [12]: 8.83 µM (active)
AC50 [13]: 32.9 µM (active)
AC50 [14]: 30.7 µM (active)
AC50 [15]: 1.58 µM (active)
AC50 [16]: 1.97 µM (active)
AC50 [17]: 13.6 µM (active)

CCOC(=O)c1csc(-c2sccc2Br)n1
EC50 [8]: > 67.6 µM (inactive)
